Consider five compounds from patent publication US12441762B2, “Hepatitis c virus NS3/4A protease inhibitors” (priority 2019, dated 2025).

Experiment [1] addresses T1, HCV NS3/4A protease D168A variant (Hepatitis C virus genotype 1a, UniProt P27958, C1185S/D1194A).
T1 construct: His-tag (cleaved yes); made in house; host or cells: Escherichia coli BL21(DE3), PET28a vector
Briefly: biochemical. The class given is biochemical. On the procedure:
(§1) The HCV GT1a NS3/4A protease gene described in the Bristol Myers Squibb patent was synthesized by GenScript and cloned into a PET28a expression vector. Cys159 was mutated to a serine residue to prevent disulfide bond formation and facilitate crystallization. The D168A gene was engineered using the site-directed mutagenesis protocol from Stratagene. Protein expression and purification were carried out as previously described.
(§2) Km constants for GT1 and D168A protease were previously determined. […] Inner filter effect corrections were applied to the initial velocities (Vo) at each substrate concentration. Vo versus substrate concentration graphs were globally fit to the Michaelis-Menten equation to obtain the Km value.
(§3) For each assay, 2 nM of NS3/4A protease (GT1a and D168A) was pre-incubated at room temperature for 1 h with increasing concentration of inhibitors in assay buffer (50 mM Tris, 5% glycerol, 10 mM DTT, 0.6 mM LDAO, and 4% dimethyl sulfoxide, pH 7.5). Inhibition assays were performed in non-binding surface 96-well black half-area plates (Corning) in a reaction volume of 60 μL. […] Three independent data sets were collected for each inhibitor with each protease construct.

The target of experiment [2] is T2, wild-type HCV NS3/4A protease (GT1a) (Hepatitis C virus genotype 1a, UniProt P27958, C1185S).
T2 construct: His-tag (cleaved yes); made in house; host or cells: Escherichia coli BL21(DE3), PET28a vector
T2 sequence (P27958 1027-1208 C1185S): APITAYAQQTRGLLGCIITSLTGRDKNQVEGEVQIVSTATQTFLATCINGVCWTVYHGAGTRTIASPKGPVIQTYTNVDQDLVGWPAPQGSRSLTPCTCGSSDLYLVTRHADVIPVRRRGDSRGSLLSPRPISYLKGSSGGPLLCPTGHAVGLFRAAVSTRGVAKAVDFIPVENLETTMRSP
In words: biochemical. The class given is biochemical. How it is done: as §1, §2, §3

T1 sequence (P27958 1027-1208 C1185S/D1194A): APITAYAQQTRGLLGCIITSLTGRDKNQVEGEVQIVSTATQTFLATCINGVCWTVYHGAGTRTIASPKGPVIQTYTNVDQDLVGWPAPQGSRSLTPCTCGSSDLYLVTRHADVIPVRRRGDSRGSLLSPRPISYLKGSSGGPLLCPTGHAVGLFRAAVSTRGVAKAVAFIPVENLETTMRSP

The term Ki denotes a dissociation constant, usually derived from enzyme kinetics or from competition with a known ligand. The low end stands for a stronger hold on the target, the high end for a looser hold on the target. As for `COc1ccc2nc(C)c(O[C@@H]3C[C@H]4C(=O)N[C@]5(C(=O)NS(=O)(=O)C6(C)CC6)C[C@H]5/C=C\CCCCC[C@H](NC(=O)OC(C)(C)C(F)(F)F)C(=O)N4C3)nc2c1` [AJ-71, 1,1,1-Trifluoro-2-methylpropan-2-yl ((2R,6S,13aS,14aR,16aS,Z)-2-((7-methoxy-3-methylquinoxalin-2-yl)oxy)-14a-(((1-methylcyclopropyl)sulfonyl)carbamoyl)-5,16-dioxo-1,2,3,5,6,7,8,9,10,11,13a,14,14a,15,16,16a-hexadecahydrocyclopropa[e]pyrrolo[1,2-a][1,4]diazacyclopentadecin-6-yl)carbamate], the Ki in experiment [1] stood at 39 ± 2.9 nM; in experiment [2], 2.56 ± 0.44 nM.
The corresponding values for `COc1ccc2nc(C(F)(F)F)c(O[C@@H]3C[C@H]4C(=O)N[C@]5(C(=O)NS(=O)(=O)C6(C)CC6)C[C@H]5/C=C\CCCCC[C@H](NC(=O)OC5CCC5)C(=O)N4C3)nc2c1` [NR01-95, Cyclobutyl ((2R,6S,13aS,14aR,16aS,Z)-2-((7-methoxy-3-(trifluoromethyl)quinoxalin-2-yl)oxy)-14a-(((1-methylcyclopropyl)sulfonyl)carbamoyl)-5,16-dioxo-1,2,3,5,6,7,8,9,10,11,13a,14,14a,15,16,16a-hexadecahydrocyclopropa[e]pyrrolo[1,2-a][1,4]diazacyclopentadecin-6-yl)carbamate] are 29.5 ± 1.8 nM and 8.53 ± 0.87 nM.
For `COc1ccc2nc(C)c(O[C@@H]3C[C@H]4C(=O)N[C@]5(C(=O)NS(=O)(=O)C6(C)CC6)C[C@H]5/C=C\CCCCC[C@H](NC(=O)O[C@@H](C)C(C)C)C(=O)N4C3)nc2c1` [NR01-99, (S)-3-Methylbutan-2-yl ((2R,6S,13aS,14aR,16aS,Z)-2-((7-methoxy-3-methylquinoxalin-2-yl)oxy)-14a-(((1-methylcyclopropyl)sulfonyl)carbamoyl)-5,16-dioxo-1,2,3,5,6,7,8,9,10,11,13a,14,14a,15,16,16a-hexadecahydrocyclopropa[e]pyrrolo[1,2-a][1,4]diazacyclopentadecin-6-yl)carbamate] the same measures were 21.7 ± 2.3 nM and 1.91 ± 0.3 nM.
With `COc1ccc2nc(C)c(O[C@@H]3C[C@H]4C(=O)N[C@]5(C(=O)NS(=O)(=O)C6(C)CC6)C[C@H]5/C=C\CCCCC[C@H](NC(=O)OCC5(C)CC5)C(=O)N4C3)nc2c1` [NR01-115, (1-Methylcyclopropyl)methyl ((2R,6S,13aS,14aR,16aS,Z)-2-((7-methoxy-3-methylquinoxalin-2-yl)oxy)-14a-(((1-methylcyclopropyl)sulfonyl)carbamoyl)-5,16-dioxo-1,2,3,5,6,7,8,9,10,11,13a,14,14a,15,16,16a-hexadecahydrocyclopropa[e]pyrrolo[1,2-a][1,4]diazacyclopentadecin-6-yl)carbamate], the Ki in experiment [1] amounted to 21.6 ± 1.7 nM; in experiment [2], 0.65 ± 0.2 nM.
The corresponding values for `COc1ccc2nc(C(F)(F)F)c(O[C@@H]3C[C@H]4C(=O)N[C@]5(C(=O)NS(=O)(=O)C6(C)CC6)C[C@H]5/C=C\CCCCC[C@H](NC(=O)OCC5(C)CC5)C(=O)N4C3)nc2c1` [NR01-117, (1-Methylcyclopropyl)methyl ((2R,6S,13aS,14aR,16aS,Z)-2-((7-methoxy-3-(trifluoromethyl)quinoxalin-2-yl)oxy)-14a-(((1-methylcyclopropyl)sulfonyl)carbamoyl)-5,16-dioxo-1,2,3,5,6,7,8,9,10,11,13a,14,14a,15,16,16a-hexadecahydrocyclopropa[e]pyrrolo[1,2-a][1,4]diazacyclopentadecin-6-yl)carbamate] are 18.6 ± 2 nM and 2.89 ± 0.19 nM.
